{"source": "paper PMC3577712", "about": "(PLoS ONE, 2013)", "key": {"[1]": {"tested_on": "Influenza A/TW/70058/09 (H1N1)", "assay": "microbe, parasite or virus in culture", "type": "cell-based", "conditions": "H1N1, read-out: EC50, viral plaque reduction assay"}, "[2]": {"tested_on": "Influenza A/TW/70066/09 (H1N1)", "assay": "microbe, parasite or virus in culture", "type": "cell-based", "conditions": "H1N1, read-out: EC50, viral plaque reduction assay"}}}
{"compound": "Nc1c(S(=O)(=O)O)cc(Nc2cccc(S(=O)(=O)CCOS(=O)(=O)O)c2)c2c1C(=O)c1ccccc1C2=O", "note": "[RB19, Remazol Brilliant Blue R]", "values": [{"measurement": "EC50", "setting": "[1]", "value": 9.8, "unit": "µM"}, {"measurement": "EC50", "setting": "[2]", "value": 11.9, "unit": "µM"}]}
